Measurements: ChEMBL document CHEMBL3286270, “Adenosine analogue inhibitors of S-adenosylhomocysteine hydrolase” (Bioorg Med Chem Lett, 2014)

How the values were obtained:
Adenosylhomocysteinase [1] = target: T1, Adenosylhomocysteinase (Homo sapiens, UniProt P23526); test: Inhibition of AHCY in human SH-SY5Y cells assessed as formation of homocysteine after 48 hrs by HPLC analysis; format: cell-based
Adenosylhomocysteinase [2] = target: T1, Adenosylhomocysteinase; test: Inhibition of recombinant human AHCY using SAH as substrate assessed as formation of homocysteine after 10 mins
[3] = Plasma protein binding in human; format: ADME, cell-free
[4] = Half life in dog; format: ADME, organism-based, Canis lupus familiaris; conditions: in vivo
[5] = Half life in rat; format: ADME, organism-based; conditions: in vivo
[6] = Solubility of the compound at pH 7; format: physicochemical; conditions: buffer
[7] = Oral bioavailability in rat; format: ADME, organism-based; conditions: in vivo
[8] = Plasma protein binding in rat; format: ADME, cell-free
[9] = Clearance in rat; format: ADME, organism-based; conditions: in vivo
[10] = Oral bioavailability in dog; format: ADME, organism-based, Canis lupus familiaris; conditions: in vivo
[11] = Clearance in dog; format: ADME, organism-based, Canis lupus familiaris; conditions: in vivo

T1 sequence (P23526 whole entry): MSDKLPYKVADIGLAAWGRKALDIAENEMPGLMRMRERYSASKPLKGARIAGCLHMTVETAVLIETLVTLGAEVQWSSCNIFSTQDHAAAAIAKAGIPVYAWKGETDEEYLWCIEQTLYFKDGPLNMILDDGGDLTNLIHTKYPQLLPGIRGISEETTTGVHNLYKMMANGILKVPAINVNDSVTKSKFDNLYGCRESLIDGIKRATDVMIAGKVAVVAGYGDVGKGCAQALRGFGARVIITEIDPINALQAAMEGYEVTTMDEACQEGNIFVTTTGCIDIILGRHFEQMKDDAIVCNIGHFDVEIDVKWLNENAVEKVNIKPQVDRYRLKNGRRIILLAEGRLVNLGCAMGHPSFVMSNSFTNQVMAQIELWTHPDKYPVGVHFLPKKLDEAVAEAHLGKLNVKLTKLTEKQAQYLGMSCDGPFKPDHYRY

SMILES	IC50 (Adenosylhomocysteinase [1]) [nM]	IC50 (Adenosylhomocysteinase [2]) [nM]	further results
Nc1ncnc2c1ncn2[C@@H]1C=C[C@@H](O)[C@H]1O	877	4120	
Nc1ncnc2c1ncn2[C@@H]1CC[C@@H](O)[C@H]1O	1.5	55	
Nc1ncc(F)c2c1ncn2[C@@H]1C[C@@H](O)[C@@H](O)[C@H]1O	878	> 10000	
Nc1nccn2c([C@@H]3CC[C@@H](O)[C@H]3O)cnc12	1.5	250	
Nc1ncnc2c1nc(F)n2[C@@H]1CC[C@@H](O)[C@H]1O	> 10000	> 10000	
Nc1ncnc2c1nc(Cl)n2[C@@H]1CC[C@@H](O)[C@H]1O	2100	> 10000	
Nc1ncnc2c1nc(Br)n2[C@@H]1CC[C@@H](O)[C@H]1O	> 10000	> 10000	
Nc1nc(F)nc2c1ncn2[C@@H]1CC[C@@H](O)[C@H]1O	98	2120	
Nc1nc(F)cc2c1ncn2[C@@H]1CC[C@@H](O)[C@H]1O		4830	
Nc1ncc(F)c2c1ncn2[C@@H]1CC[C@@H](O)[C@H]1O	1.3	40	PPB [3]: < 0.1%; half-life [4]: 216 min; half-life [5]: 54 min; solubility [6]: > 200 uM/ml; bioavailability [7]: 86%; PPB [8]: < 0.1%; clearance [9]: 21 mL/min/kg; bioavailability [10]: > 99%; clearance [11]: 9.6 mL/min/kg
Nc1ncc(Cl)c2c1ncn2[C@@H]1CC[C@@H](O)[C@H]1O	2.2	16	
Cc1cnc(N)c2ncn([C@@H]3CC[C@@H](O)[C@H]3O)c12	36	236	
Nc1nc(F)c(F)c2c1ncn2[C@@H]1CC[C@@H](O)[C@H]1O	189	3640	
Nc1ncc(F)c2c1ncn2[C@@H]1C[C@@H](F)[C@@H](O)[C@H]1O	672	> 10000	
Nc1ncc(F)c2c1ncn2[C@@H]1C[C@H](F)[C@@H](O)[C@H]1O	41	269	
Nc1ncc(F)c2c1ncn2[C@@H]1C[C@H](O)[C@@H](O)[C@H]1O	9.4	24	
C[C@H]1C[C@@H](n2cnc3c(N)ncc(F)c32)[C@H](O)[C@@H]1O		1220	
Nc1ncc(F)c2c1ncn2[C@@H]1C=C[C@@H](O)[C@H]1O		9690	
Nc1ncc(F)c2c1ncn2[C@H]1[C@H](O)[C@H](O)[C@@H]2C[C@@H]21	1960	> 10000	
Nc1ncc(F)c2c1ncn2[C@@H]1C(F)=C[C@@H](O)[C@H]1O		976	
Nc1ncnc2c1ncn2[C@@H]1C=C(CCl)[C@@H](O)[C@H]1O	939	195	
Nc1ncc(F)c2c1ncn2[C@@H]1C(F)C[C@@H](O)[C@H]1O (mixture of isomers)	2.7	455	
Nc1ncnc2c1ncn2[C@@H]1C=C(CO)[C@@H](O)[C@H]1O [NEOPLANOCIN A]	10	1.5	
